# Experimental data reported in BindingDB's records for doi:10.1021/jm00172a035 (Wyeth-Ayerst Research, 1990).
# Counter-ions that a name gives are not always drawn.
# Biological target: Sodium-dependent serotonin transporter (Rattus norvegicus) (UniProt P31652)
# Experiment: Inhibition of binding of [3H]imipramine to imipramine receptor in rat brain
# Sequence of Sodium-dependent serotonin transporter (Rattus norvegicus) (P31652 whole entry, looked up): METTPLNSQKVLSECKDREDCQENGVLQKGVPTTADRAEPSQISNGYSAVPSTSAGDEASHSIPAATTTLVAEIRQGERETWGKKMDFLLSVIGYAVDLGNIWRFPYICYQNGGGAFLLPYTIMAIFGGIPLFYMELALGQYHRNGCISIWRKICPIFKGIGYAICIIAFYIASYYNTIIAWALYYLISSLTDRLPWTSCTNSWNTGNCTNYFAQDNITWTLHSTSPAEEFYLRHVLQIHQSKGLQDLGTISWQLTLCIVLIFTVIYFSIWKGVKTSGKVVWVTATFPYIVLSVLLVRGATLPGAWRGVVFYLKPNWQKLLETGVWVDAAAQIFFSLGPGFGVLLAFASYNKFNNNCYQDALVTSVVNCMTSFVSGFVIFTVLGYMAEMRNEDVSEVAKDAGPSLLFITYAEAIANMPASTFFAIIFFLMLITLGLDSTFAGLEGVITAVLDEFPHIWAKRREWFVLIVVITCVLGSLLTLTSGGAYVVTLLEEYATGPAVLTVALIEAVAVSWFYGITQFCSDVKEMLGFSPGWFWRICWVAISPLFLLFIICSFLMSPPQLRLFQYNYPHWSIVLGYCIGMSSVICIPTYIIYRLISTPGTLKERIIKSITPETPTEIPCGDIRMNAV
row,SMILES,IC50
1,COc1ccc(C(CN(C)C)C2(O)CCCCC2)cc1OC (stereo not given),700 nM
2,COc1ccc(C(CN2CCCCC2)C2(O)CCCCC2)cc1 (stereo not given),> 10000 nM
3,COc1ccc(C(CN2CCOCC2)C2(O)CCCCC2)cc1 (stereo not given),> 10000 nM
4,CN(C)CC(c1ccc(Br)cc1)C1(O)CCC1 (stereo not given),435 nM
5,COc1ccc(C(CN2CCCC2)C2(O)CCCCC2)cc1 (stereo not given),> 10000 nM
6,CNCC(c1ccc(OC)cc1)C1(O)CCCCC1 (stereo not given) [N-Desmethylvenlafaxine],300 nM
7,COc1ccc(C(CN(C)C)C2(O)CCCCCCC2)cc1 (stereo not given),> 10000 nM
8,COc1ccc(C(CN)C2(O)CCCCC2)cc1 (stereo not given),900 nM
9,COc1ccc(C(CN(C)C)C2(O)CCCCCC2)cc1 (stereo not given),300 nM
10,CN(C)CC(c1ccc(N)cc1)C1(O)CCCCC1 (stereo not given),> 10000 nM
11,CN(C)CC(c1ccccc1Cl)C1(O)CCCCC1 (stereo not given) [1-(1-(2-chlorophenyl)-2-(dimethylamino)ethyl)cyclohexanol],523 nM
12,CN(C)CC(c1ccccc1Br)C1(O)CCCCC1 (stereo not given),260 nM
13,CN(C)CC(c1ccccc1O)C1(O)CCCCC1 (stereo not given),> 10000 nM

# Stronger by IC50, values ahead:
row,IC50,SMILES
1,150 nM,COc1cccc(C(CN(C)C)C2(O)CCCCC2)c1 (stereo not given) [1-(2-(dimethylamino)-1-(3-methoxyphenyl)ethyl)cyclohexanol]
2,126 nM,COc1ccc(C(CN(C)C)C2(O)CCCC2)cc1 (stereo not given)
3,205 nM,Cc1ccc(C(CN(C)C)C2(O)CCCCC2)cc1 (stereo not given)
4,250 nM,CN(C)CC(c1ccc([N+](=O)[O-])cc1)C1(O)CCCCC1 (stereo not given)
5,37 nM,CN(C)CC(c1ccc(Cl)c(Cl)c1)C1(O)CCCCC1 (stereo not given)
6,190 nM,COc1ccc(C(CN(C)C)C2(O)CCCCC2)cc1Br (stereo not given)
7,130 nM,CN(C)CC(c1cccc(Cl)c1)C1(O)CCCCC1 (stereo not given)
8,100 nM,CN(C)CC(c1ccc(Cl)cc1)C1(O)CCCCC1 (stereo not given) [1-[1-(4-Chloro-phenyl)-2-dimethylamino-ethyl]-cyclohexanol (HCl)]
9,88 nM,CN(C)CC(c1ccc(C(F)(F)F)cc1)C1(O)CCCCC1 (stereo not given)
10,52 nM,CN(C)CC(c1cccc(Br)c1)C1(O)CCCCC1 (stereo not given)
11,62 nM,CN(C)CC(c1ccc(Br)cc1)C1(O)CCCCC1 (stereo not given)
12,95 nM,COc1cccc(C(CN(C)C)C2(O)CCCC2)c1 (stereo not given)
